Measurements reported in PubChem BioAssay AID504520 (The Scripps Research Institute Molecular Screening Center, 2011).
Active and inactive are the calls of the source. No rule for the calls is given here.

Legend:
Test in all cases: competitive ABPP of LYPLA1 versus anti-target hydrolases – fluorescence, gel-based ABPP, mouse proteome, late-stage follow-up (AID 504520);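 also: soluble proteome from BW5147 murine T cells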
Conditions in all cases: FP-rhodamine fluorescence, stronger effect = higher value
ABHD11 = system: ABHD11
ESD = system: ESD
LYPLA1 = system: LYPLA1
LYPLA2 = system: LYPLA2
[1] = molecular target: Platelet-activating factor acetylhydrolase 2, cytoplasmic (Mus musculus) (UniProt Q8VDG7)
Platelet-activating factor acetylhydrolase 2, cytoplasmic (Mus musculus), sequence (Q8VDG7 whole entry, looked up): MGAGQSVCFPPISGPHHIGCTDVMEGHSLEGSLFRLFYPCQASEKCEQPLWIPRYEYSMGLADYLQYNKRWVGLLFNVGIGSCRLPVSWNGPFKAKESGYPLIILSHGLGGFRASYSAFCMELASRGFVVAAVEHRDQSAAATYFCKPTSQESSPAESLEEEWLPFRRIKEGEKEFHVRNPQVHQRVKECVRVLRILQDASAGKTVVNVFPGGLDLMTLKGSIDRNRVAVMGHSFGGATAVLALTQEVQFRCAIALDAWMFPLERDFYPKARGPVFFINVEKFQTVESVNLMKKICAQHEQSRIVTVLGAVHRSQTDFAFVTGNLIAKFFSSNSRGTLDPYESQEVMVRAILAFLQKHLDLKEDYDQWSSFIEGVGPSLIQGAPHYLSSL

| Structure (SMILES) | inhibition (ABHD11; at 0.75 µM) | inhibition (ABHD11; inhibition, at 0.03 µM) [%] | inhibition (ABHD11; inhibition, at 0.15 µM) [%] | inhibition (ESD; at 0.75 µM) | inhibition (ESD; inhibition, at 0.03 µM) [%] | inhibition (ESD; inhibition, at 0.15 µM) [%] | inhibition (LYPLA1; at 0.75 µM) | inhibition (LYPLA1; inhibition, at 0.03 µM) [%] | inhibition (LYPLA1; inhibition, at 0.15 µM) [%] | inhibition (LYPLA2; at 0.75 µM) | inhibition (LYPLA2; inhibition, at 0.03 µM) [%] | inhibition (LYPLA2; inhibition, at 0.15 µM) [%] | inhibition ([1]; PAFAH2, at 0.75 µM) | inhibition ([1]; PAFAH2, inhibition, at 0.03 µM) [%] | inhibition ([1]; PAFAH2, inhibition, at 0.15 µM) [%] |
| --- | --- | --- | --- | --- | --- | --- | --- | --- | --- | --- | --- | --- | --- | --- | --- |
| CC(C)CC(O)(CC(C)C)c1cnn(C(=O)N(c2ccccc2)c2ccccc2)n1 | 50% (inactive) | 0 | 0 | 0% (inactive) | 0 | 0 | 0% (inactive) | 0 | 0 | 0% (inactive) | 0 | 0 | 0% (inactive) | 0 | 0 |
| O=C(N1CCCCC1)n1ncc(C(O)(c2ccccc2)c2ccccc2)n1 | 100% | 100 | 100 | 25% (inactive) | 0 | 0 | 100% | 50 | 100 | 0% (inactive) | 0 | 0 | 0% (inactive) | 0 | 0 |
| O=C(N(c1ccccc1)c1ccc(Br)cc1)n1ncc(C(O)(c2ccccc2)c2ccccc2)n1 | 100% | 0 | 100 | 0% (inactive) | 0 | 0 | 0% (inactive) | 0 | 0 | 0% (inactive) | 0 | 0 | 0% (inactive) | 0 | 0 |
| O=C(N(c1ccccc1)c1ccc2ccccc2c1)n1ncc(C(O)(c2ccccc2)c2ccccc2)n1 | 100% | 0 | 100 | 0% (inactive) | 0 | 0 | 0% (inactive) | 0 | 0 | 0% (inactive) | 0 | 0 | 25% (inactive) | 0 | 0 |
| COCCCC1CCCCN1C(=O)n1ncc(C(O)(c2ccccc2)c2ccccc2)n1 (stereo not given) | 75% | 0 | 50 | 0% (inactive) | 0 | 0 | 0% (inactive) | 0 | 0 | 0% (inactive) | 0 | 0 | 0% (inactive) | 0 | 0 |
| COC1CCN(C(=O)n2ncc(C(O)(c3ccccc3)c3ccccc3)n2)CC1 | 100% | 100 | 100 | 25% (inactive) | 0 | 0 | 100% | 0 | 50 | 25% (inactive) | 0 | 0 | 0% (inactive) | 0 | 0 |
| O=C(N1CCCCC1)n1ncc(C(O)c2ccccc2)n1 (stereo not given) | 100% | 75 | 100 | 0% (inactive) | 0 | 0 | 100% | 50 | 50 | 0% (inactive) | 0 | 0 | 0% (inactive) | 0 | 0 |
| O=C(N1CCCC(Cc2ccccc2)C1)n1cc(C(O)(c2ccccc2)c2ccccc2)nn1 (stereo not given) | 100% | 100 | 100 | 0% (inactive) | 0 | 0 | 100% | 0 | 50 | 25% (inactive) | 0 | 0 | 0% (inactive) | 0 | 0 |
| O=C(N(c1ccccc1)c1ccccc1)n1ncc(-c2cc(F)cc(F)c2)n1 | 50% (inactive) | 0 | 0 | 0% (inactive) | 0 | 0 | 0% (inactive) | 0 | 0 | 0% (inactive) | 0 | 0 | 50% (inactive) | 0 | 0 |
| O=C(N(c1ccccc1)c1ccccc1)n1ncc(C(O)(c2ccccc2)c2ccccc2)n1 | 0% (inactive) | 0 | 0 | 0% (inactive) | 0 | 0 | 0% (inactive) | 0 | 0 | 0% (inactive) | 0 | 0 | 25% (inactive) | 0 | 0 |
| CN(C(=O)n1ncc(C(O)(c2ccccc2)c2ccccc2)n1)c1ccccc1 | 75% (inactive) | 0 | 0 | 0% (inactive) | 0 | 0 | 0% (inactive) | 0 | 0 | 0% (inactive) | 0 | 0 | 25% (inactive) | 0 | 0 |
| CC1CCN(C(=O)n2ncc(C(O)(c3ccccc3)c3ccccc3)n2)CC1 | 100% | 100 | 100 | 0% (inactive) | 0 | 0 | 100% | 50 | 100 | 50% (inactive) | 0 | 0 | 25% (inactive) | 0 | 0 |
| O=C(N(c1ccccc1)c1ccccc1)n1ncc(-c2ccc(Oc3ccccc3)cc2)n1 | 0% (inactive) | 0 | 0 | 0% (inactive) | 0 | 0 | 0% (inactive) | 0 | 0 | 0% (inactive) | 0 | 0 | 75% (inactive) | 0 | 0 |
| O=C(N1CCc2ccccc2C1)n1ncc(C(O)(c2ccccc2)c2ccccc2)n1 | 100% | 100 | 100 | 25% (inactive) | 0 | 10 | 50% (inactive) | 0 | 0 | 0% (inactive) | 0 | 0 | 100% | 0 | 100 |
| CCC1CCCCN1C(=O)n1ncc(C(O)(c2ccccc2)c2ccccc2)n1 (stereo not given) | 100% | 100 | 100 | 0% (inactive) | 0 | 0 | 0% (inactive) | 0 | 0 | 0% (inactive) | 0 | 0 | 0% (inactive) | 0 | 0 |
| O=C(OC(c1ccccc1)c1cnn(C(=O)N2CCCCC2)n1)N1CCCCC1 (stereo not given) | 100% | 100 | 100 | 50% (inactive) | 0 | 25 | 100% | 100 | 100 | 25% (inactive) | 0 | 0 | 100% | 0 | 100 |
| O=C(N(c1ccccc1)c1ccccc1)n1ncc(-c2ccc(-c3ccccc3)cc2)n1 | 0% (inactive) | 0 | 0 | 0% (inactive) | 0 | 0 | 0% (inactive) | 0 | 0 | 0% (inactive) | 0 | 0 | 75% (inactive) | 0 | 0 |
| COc1ccc2cc(-c3cnn(C(=O)N(c4ccccc4)c4ccccc4)n3)ccc2c1 | 25% (inactive) | 0 | 0 | 0% (inactive) | 0 | 0 | 0% (inactive) | 0 | 0 | 0% (inactive) | 0 | 0 | 50% (inactive) | 0 | 0 |
